Patent US20240182481A1 (Tango Therapeutics, Inc., priority 2021, published 2024)
Like-named read-outs stand apart in the source and are kept apart here.

Tests used:
USP1-UAF1 = USP1-UAF1 (Homo sapiens, UniProt O94782); test: Ubiquitin Rhodamine assay for USP1-UAF1 activity; assay type: biochemical
Description: Certain compounds of the disclosure were assessed for USP1-UAF1 activity in a Ubiquitin Rhodamine assay as described in Example 135.

[1] = test system: MDA-MB-436 (BRCA1 mutant) cell line; test: Viability assay in BRCA1 mutant cell line MDA-MB-436; assay type: cell-based; conditions: BRCA1 mutant MDA-MB-436, read-out: MDA-MB-436 rel IC50
Excerpt: (§1) Table 1 also indicates IC50 values in a viability assay for a non-isogenic pair of BRCA1 mutant (column 5—MDA-MB-436) and BRCA1 WT (column 6—HCC1954) cell lines. These values indicate the effect of treatment with compound on cell survival.

monoubiquitinated PCNA = test: AlphaLISA assay measuring monoubiquitinated PCNA in MDA-MB-436; assay type: cell-based; conditions: read-out: Alpha LISA IC50
Excerpt: Table 1 also indicates IC50 values for exemplary compounds in an AlphaLISA assay measuring monoubiquitinated PCNA in a BRCA1 mutant cell line (MDA-MB-436; column 7).

[2] = test system: HCC1954 (BRCA1 WT) cell line; test: Viability assay in BRCA1 WT cell line HCC1954; assay type: cell-based; conditions: Homo sapiens, read-out: HCC 1954 IC50 rel IC50
Excerpt: as §1

[3] = Homo sapiens, MDA-MB-436, viability

Chain of USP1-UAF1 (O94782 whole entry): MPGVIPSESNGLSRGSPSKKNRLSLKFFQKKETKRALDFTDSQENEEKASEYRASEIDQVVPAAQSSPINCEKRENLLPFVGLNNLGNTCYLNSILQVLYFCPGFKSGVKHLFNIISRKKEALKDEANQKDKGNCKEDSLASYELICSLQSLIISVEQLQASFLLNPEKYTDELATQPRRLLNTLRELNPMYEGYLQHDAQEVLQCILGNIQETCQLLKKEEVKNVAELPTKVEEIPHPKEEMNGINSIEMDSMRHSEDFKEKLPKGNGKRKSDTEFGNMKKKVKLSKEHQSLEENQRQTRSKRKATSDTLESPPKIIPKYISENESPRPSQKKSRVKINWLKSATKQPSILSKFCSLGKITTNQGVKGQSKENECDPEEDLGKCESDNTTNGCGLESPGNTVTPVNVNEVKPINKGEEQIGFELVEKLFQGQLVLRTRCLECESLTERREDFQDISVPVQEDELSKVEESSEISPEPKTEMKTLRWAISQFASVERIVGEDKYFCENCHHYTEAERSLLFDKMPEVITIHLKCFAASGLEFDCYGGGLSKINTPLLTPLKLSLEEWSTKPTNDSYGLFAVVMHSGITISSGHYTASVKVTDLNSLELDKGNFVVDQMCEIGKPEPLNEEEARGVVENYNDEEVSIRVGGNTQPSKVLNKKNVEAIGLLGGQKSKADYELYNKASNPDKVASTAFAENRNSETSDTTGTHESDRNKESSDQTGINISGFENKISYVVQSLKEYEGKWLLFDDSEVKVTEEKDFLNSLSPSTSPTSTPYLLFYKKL
Chain of USP1-UAF1 (Q8TAF3 whole entry partner): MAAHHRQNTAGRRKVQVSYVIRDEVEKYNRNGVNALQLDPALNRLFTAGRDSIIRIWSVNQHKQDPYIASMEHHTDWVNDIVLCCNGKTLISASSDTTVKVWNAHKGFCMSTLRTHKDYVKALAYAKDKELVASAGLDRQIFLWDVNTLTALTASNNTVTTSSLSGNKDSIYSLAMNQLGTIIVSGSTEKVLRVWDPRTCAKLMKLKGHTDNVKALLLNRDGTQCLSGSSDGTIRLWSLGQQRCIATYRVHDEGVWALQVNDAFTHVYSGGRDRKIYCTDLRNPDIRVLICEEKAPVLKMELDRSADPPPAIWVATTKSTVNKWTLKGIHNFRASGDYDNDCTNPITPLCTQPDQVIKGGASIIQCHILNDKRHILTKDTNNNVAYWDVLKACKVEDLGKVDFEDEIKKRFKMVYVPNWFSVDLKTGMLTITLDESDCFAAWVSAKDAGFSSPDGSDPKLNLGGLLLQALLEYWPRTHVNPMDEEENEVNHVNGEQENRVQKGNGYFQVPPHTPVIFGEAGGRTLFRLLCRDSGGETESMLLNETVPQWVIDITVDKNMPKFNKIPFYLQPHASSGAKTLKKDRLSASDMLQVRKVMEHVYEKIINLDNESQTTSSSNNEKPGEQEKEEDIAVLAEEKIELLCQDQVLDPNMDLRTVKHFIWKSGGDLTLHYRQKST

COc1ncnc(C2CC2)c1-c1ncc2[nH]cc([C@@](C)(O)c3ccc(-c4nc(C(F)(F)F)cn4C)cc3)c2n1 (single isomer, unassigned) [Compound 4] showed an IC50 (USP1-UAF1) of 30 to 100 nM, an IC50 ([1]; viability) of 100 to 250 nM and an IC50 (monoubiquitinated PCNA) of 100 to 250 nM.

With COc1ncnc(C2CC2)c1-c1ncc2[nH]cc([C@@](C)(O)c3ccc(-c4nc(C(F)(F)F)cn4C)cc3)c2n1 (single isomer, unassigned) [Compound 76] the IC50 (USP1-UAF1) was 100 to 10000 nM, the IC50 ([1]; viability) was 250 to 10000 nM and the IC50 (monoubiquitinated PCNA; Homo sapiens) was 100 to 250 nM.

Compound COc1ncnc(C2CC2)c1-c1ncc2[nH]nc(Cc3ccc(-c4nc(C(F)(F)F)cn4C)cc3)c2n1 [Compound 5, 5-(4-cyclopropyl-6-methoxy-pyrimidin-5-yl)-3-[[4-[1-methyl-4-(trifluoromethyl)imidazol-2-yl]phenyl]methyl]-1H-pyrazolo[4,3-d]pyrimidine] has an IC50 (USP1-UAF1) of less than 30 nM, an IC50 [1, 3] of less than 100 nM and an IC50 (monoubiquitinated PCNA; Homo sapiens) of less than 100 nM.

Compound COc1ncnc(C2CC2)c1-c1ncc2nn(C)c(Cc3ccc(-c4nc(C(F)(F)F)cn4C)cc3)c2n1 [Compound 24, 5-(4-cyclopropyl-6-methoxy-pyrimidin-5-yl)-2-methyl-3-[[4-[1-methyl-4-(trifluoromethyl)imidazol-2-yl]phenyl]methyl]pyrazolo[4,3-d]pyrimidine] has an IC50 [1, 3] of 250 to 10000 nM, an IC50 [2] of no less than 10000 nM and an IC50 (monoubiquitinated PCNA; Homo sapiens) of 100 to 250 nM.

COc1ncnc(C2CC2)c1-c1ncc2c(n1)c(Cc1ccc(-c3nc(C(F)(F)F)cn3C3CC3)cc1)cn2C [Compound 25] was tested, and the IC50 (USP1-UAF1) was less than 30 nM and the IC50 (monoubiquitinated PCNA; Homo sapiens) was less than 100 nM.

COc1ncnc(C2CC2)c1-c1ncc2c(n1)c(Cc1ccc(-c3nc(C(F)(F)F)cn3C)cc1)nn2C [Compound 26, 5-(4-cyclopropyl-6-methoxy-pyrimidin-5-yl)-1-methyl-3-[[4-[1-methyl-4-(trifluoromethyl)imidazol-2-yl]phenyl]methyl]pyrazolo[4,3-d]pyrimidine] gave an IC50 [1, 3] of less than 100 nM, an IC50 [2] of no less than 10000 nM and an IC50 (monoubiquitinated PCNA; Homo sapiens) of less than 100 nM.

Work on CC(C)n1cc(C(F)(F)F)nc1-c1ccc(C(O)c2c[nH]c3cnc(-c4cccnc4OC(F)F)nc23)cc1 (centres unmarked) [Compound 52, [2-[2-(difluoromethoxy)-3-pyridyl]-5H-pyrrolo[3,2-d]pyrimidin-7-yl]-[4-[1-isopropyl-4-(trifluoromethyl)imidazol-2-yl]phenyl]methanol] yielded an IC50 (USP1-UAF1) of 100 to 10000 nM, an IC50 [1, 3] of 250 to 10000 nM and an IC50 [2] of no less than 10000 nM.

In the case of Cn1cc(C(F)(F)F)nc1-c1ccc(C(=O)c2c[nH]c3cnc(-c4cccnc4C4CC4)cc23)cc1 [Compound 53], the IC50 (USP1-UAF1) is reported as no less than 10000 nM, the IC50 [1, 3] is reported as no less than 10000 nM and the IC50 [2] is reported as no less than 10000 nM.

COc1ncnc(C2CC2)c1-c1ncc2[nH]cc(Cc3ccc(-c4nc(C(F)(F)F)cn4C(C)C)cc3)c2n1 [Compound 54, 2-(4-cyclopropyl-6-methoxy-pyrimidin-5-yl)-7-[[4-[1-isopropyl-4-(trifluoromethyl)imidazol-2-yl]phenyl]methyl]-5H-pyrrolo[3,2-d]pyrimidine] was tested, and the IC50 (USP1-UAF1) was less than 30 nM, the IC50 [1, 3] was less than 100 nM and the IC50 (monoubiquitinated PCNA; Homo sapiens) was less than 100 nM.

CC(C)Oc1ncccc1-c1ncc2[nH]cc(Cc3ccc(-c4nc(C(F)(F)F)cn4C)cc3)c2n1 [Compound 55, 2-isopropoxy-3-[7-([4-[1-methyl-4-(trifluoromethyl)imidazol-2-yl]phenyl]methyl)-5H-pyrrolo[3,2-d]pyrimidin-2-yl]pyridine] showed an IC50 (USP1-UAF1) of less than 30 nM, an IC50 [1, 3] of less than 100 nM and an IC50 [2] of no less than 10000 nM.

With Cn1cc(C(F)(F)F)nc1-c1ccc(Cc2c[nH]c3cnc(-c4cccnc4O)nc23)cc1 [Compound 56, 3-[7-([4-[1-methyl-4-(trifluoromethyl)imidazol-2-yl]phenyl]methyl)-5H-pyrrolo[3,2-d]pyrimidin-2-yl]pyridin-2-ol] the IC50 (USP1-UAF1) was no less than 10000 nM, the IC50 [1, 3] was no less than 10000 nM and the IC50 [2] was no less than 10000 nM.

CNc1ncccc1-c1ncc2[nH]cc(Cc3ccc(-c4nc(C(F)(F)F)cn4C)cc3)c2n1 [Compound 58, N-methyl-3-[7-[[4-[1-methyl-4-(trifluoromethyl)imidazol-2-yl]phenyl]methyl]-5H-pyrrolo[3,2-d]pyrimidin-2-yl]pyridin-2-amine] was tested, and the IC50 (USP1-UAF1) was 100 to 10000 nM, the IC50 [1, 3] was 250 to 10000 nM and the IC50 [2] was 250 to 10000 nM.

COc1ncnc(C2CC2)c1-c1ncc2[nH]cc(C(O)c3ccc(-c4nc(C(F)(F)F)cn4C(C)C)cc3)c2n1 (centres unmarked) [Compound 59, [2-(4-cyclopropyl-6-methoxy-pyrimidin-5-yl)-5H-pyrrolo[3,2-d]pyrimidin-7-yl]-[4-[1-isopropyl-4-(trifluoromethyl)imidazol-2-yl]phenyl]methanol] was tested, and the IC50 (USP1-UAF1) was 100 to 10000 nM, the IC50 [1, 3] was 250 to 10000 nM and the IC50 [2] was 250 to 10000 nM.

With CN(Cc1ccccc1-c1ncc2[nH]cc(Cc3ccc(-c4nc(C(F)(F)F)cn4C)cc3)c2n1)CC(F)(F)F [Compound 61] the IC50 (USP1-UAF1) was 30 to 100 nM, the IC50 [1, 3] was 250 to 10000 nM and the IC50 [2] was 250 to 10000 nM.

CC(C)c1ccccc1-c1ncc2[nH]cc(Nc3ccc(-c4nc(C(F)(F)F)cn4C)cc3)c2n1 [Compound 62, 2-(2-isopropylphenyl)-N-[4-[1-methyl-4-(trifluoromethyl)imidazol-2-yl]phenyl]-5H-pyrrolo[3,2-d]pyrimidin-7-amine] gave an IC50 (USP1-UAF1) of 100 to 10000 nM, an IC50 [1, 3] of 250 to 10000 nM and an IC50 [2] of 250 to 10000 nM.

Cn1cc(C(F)(F)F)nc1-c1ccc(Cc2c[nH]c3cnc(-c4ccccc4CO)nc23)cc1 [Compound 72] was tested, and the IC50 (USP1-UAF1) was 100 to 10000 nM, the IC50 [1, 3] was 250 to 10000 nM and the IC50 [2] was no less than 10000 nM.

With CCn1c(C(F)(F)F)cnc1-c1ccc(C(O)c2c[nH]c3cnc(-c4c(OC)ncnc4C4CC4)nc23)cc1 (centres unmarked) [Compound 75] the IC50 (USP1-UAF1) was no less than 10000 nM, the IC50 [1, 3] was no less than 10000 nM and the IC50 [2] was no less than 10000 nM.

Work on Cn1cc(C(F)(F)F)nc1-c1ccc(Cc2c[nH]c3cnc(-c4cccnc4N4CCC45COC5)nc23)cc1 [Compound 77] yielded an IC50 (USP1-UAF1) of 100 to 10000 nM, an IC50 [1, 3] of 250 to 10000 nM and an IC50 [2] of no less than 10000 nM.

Work on CC(C)c1ccccc1-c1ncc2c(n1)c(C(O)c1ccc(-c3nc(C(F)(F)F)cn3C)cc1)cn2Cc1ccccc1 (centres unmarked) [Compound 80] yielded an IC50 (USP1-UAF1) of 100 to 10000 nM, an IC50 [1, 3] of 250 to 10000 nM and an IC50 [2] of no less than 10000 nM.

Compound CC(C)c1ccccc1-c1ncc2[nH]cc(C(=O)c3ccc(-c4nc(C(F)(F)F)cn4C)cc3)c2n1 [Compound 86, [2-(2-isopropylphenyl)-5H-pyrrolo[3,2-d]pyrimidin-7-yl]-[4-[1-methyl-4-(trifluoromethyl)imidazol-2-yl]phenyl]methanone] has an IC50 (USP1-UAF1) of no less than 10000 nM, an IC50 [1, 3] of 250 to 10000 nM and an IC50 [2] of 250 to 10000 nM.

Work on Cn1cc(C(F)(F)F)nc1-c1ccc(C(O)c2c[nH]c3cnc(-c4c(C(F)(F)F)cnn4C)nc23)cc1 (centres unmarked) [Compound 108, [4-[1-methyl-4-(trifluoromethyl)imidazol-2-yl]phenyl]-[2-[2-methyl-4-(trifluoromethyl)pyrazol-3-yl]-5H-pyrrolo[3,2-d]pyrimidin-7-yl]methanol] yielded an IC50 (USP1-UAF1) of 100 to 10000 nM, an IC50 [1, 3] of 250 to 10000 nM and an IC50 [2] of no less than 10000 nM.

Work on COCCc1[nH]c2cnc(-c3c(OC)ncnc3C3CC3)nc2c1C(O)c1ccc(-c2nc(C(F)(F)F)cn2C)cc1 (centres unmarked) [Compound 109, [2-(4-cyclopropyl-6-methoxy-pyrimidin-5-yl)-6-(2-methoxyethyl)-5H-pyrrolo[3,2-d]pyrimidin-7-yl]-[4-[1-methyl-4-(trifluoromethyl)imidazol-2-yl]phenyl]methanol] yielded an IC50 (USP1-UAF1) of 100 to 10000 nM, an IC50 [1, 3] of 250 to 10000 nM and an IC50 [2] of no less than 10000 nM.

In the case of COc1ncnc(C2CC2)c1-c1ncc2[nH]cc(C(C)c3ccc(-c4nc(C(F)(F)F)cn4C)cc3)c2n1 (centres unmarked) [Compound 128], the IC50 (USP1-UAF1) is reported as less than 30 nM, the IC50 [1, 3] is reported as less than 100 nM and the IC50 [2] is reported as no less than 10000 nM.

COc1ncnc(C2CC2)c1-c1ncc2[nH]cc(C(c3ccc(-c4nc(C(F)(F)F)cn4C)cc3)C(C)C)c2n1 (centres unmarked) [Compound 145] showed an IC50 (USP1-UAF1) of 30 to 100 nM, an IC50 [1, 3] of 100 to 250 nM and an IC50 [2] of 250 to 10000 nM.

For Cn1cc(C(F)(F)F)nc1-c1ccc(Cc2c[nH]c3cnc(-c4c(OC5CC5)ncnc4C4CC4)nc23)cc1 [Compound 155], the IC50 (USP1-UAF1) was less than 30 nM, the IC50 [1, 3] was less than 100 nM and the IC50 [2] was no less than 10000 nM.

Cn1cc(C(F)(F)F)nc1-c1ccc(Cc2n[nH]c3cnc(-c4c(Cl)ccnc4C4CC4)nc23)cc1 [Compound 156, 5-(4-chloro-2-cyclopropylpyridin-3-yl)-3-(4-(1-methyl-4-(trifluoromethyl)-1H-imidazol-2-yl)benzyl)-1H-pyrazolo[4,3-d]pyrimidine] showed an IC50 (USP1-UAF1) of less than 30 nM, an IC50 [1, 3] of less than 100 nM and an IC50 [2] of no less than 10000 nM.

Work on Cn1cc(C(F)(F)F)nc1-c1ccc(Cc2c[nH]c3cnc(-c4c(OCF)ncnc4C4CC4)nc23)cc1 [Compound 173, 2-[4-cyclopropyl-6-(fluoromethoxy)pyrimidin-5-yl]-7-[[4-[1-methyl-4-(trifluoromethyl)imidazol-2-yl]phenyl]methyl]-5H-pyrrolo[3,2-d]pyrimidine] yielded an IC50 (USP1-UAF1) of less than 30 nM, an IC50 [1, 3] of less than 100 nM and an IC50 [2] of no less than 10000 nM.

In the case of Cn1cc(C(F)(F)F)nc1-c1ccc(Cc2c[nH]c3cnc(-c4c(C(F)(F)F)cnn4C)nc23)cc1 [Compound 179, 7-[[4-[1-methyl-4-(trifluoromethyl)imidazol-2-yl]phenyl]methyl]-2-[2-methyl-4-(trifluoromethyl)pyrazol-3-yl]-5H-pyrrolo[3,2-d]pyrimidine], the IC50 [1, 3] is reported as less than 100 nM, the IC50 [2] is reported as 250 to 10000 nM and the IC50 (monoubiquitinated PCNA; Homo sapiens) is reported as less than 100 nM.

COc1ncnc(C2CC2)c1-c1nc(Cl)c2[nH]cc(Cc3ccc(-c4nc(C(F)(F)F)cn4C)cc3)c2n1 [Compound 187, 4-chloro-2-(4-cyclopropyl-6-methoxy-pyrimidin-5-yl)-7-[[4-[1-methyl-4-(trifluoromethyl)imidazol-2-yl]phenyl]methyl]-5H-pyrrolo[3,2-d]pyrimidine] gave an IC50 (USP1-UAF1) of less than 30 nM, an IC50 [1, 3] of less than 100 nM and an IC50 [2] of 250 to 10000 nM.
